The test system of one experiment is Breast MACL MCF7. Nature of the experiment: In vitro clonogenic assay (two-layer agar), breast. The experiment is classed as cell-based, human. As to conditions: continuous exposure, 8-20 days, colony count. On the procedure: (§1) In order to determine the activity of the compounds synthesised, solid human tumour xenografts growing subcutaneously in serial passages in thymus aplastic nude mice (Naval Medical Research Institute, USA nu/nu strain) were removed under sterile condition, mechanically disaggregated and subsequently incubated with an enzyme cocktail consisting of collagenase (41 U/ml, Sigma), DNAse I (125 U/ml, Roche), hyaluronidase (1000 U/ml, Sigma) and dispase II (1.0 U/ml) in RPMI 1640-Medium (Life Technologies) at 37° C. for 30 minutes. Cells were passed through sieves of 200 μm and 50 μm mesh size and washed twice with sterile PBS-buffer. The percentage of viable cells was determined in a Neubauer-hemocytometer using trypan blue exclusion. The cells generated were as follows: • Breast MACL MCF7 • […] • Lung 629L • Melanoma MEXF 462NL
(§2) The clonogenic assay was performed in a 24-well format according to a modified two-layer agar assay introduced by Hamburger, A. W. and Salmon, S. E., Science, 197, […] (1977). The bottom layer consisted of 0.2 ml/well of Iscove's Modified Dulbecco's Medium (supplemented with 20% fetal calf serum and 1% gentamicin) and 0.75% agar. 4×10^4 to 8×10^4 cells were added to 0.2 ml of the same culture medium supplemented with 0.4% agar and plated in 24-multiwell dishes onto the bottom layer. The test compounds were applied by continuous exposure (drug overlay) in 0.2 ml culture medium. Each dish included six control wells containing the vehicle and drug treated groups in triplicate at 6 concentrations. Cultures were incubated at 37° C. and 7.5% CO2 in a humidified atmosphere for 8-20 days and monitored closely for colony growth using an inverted microscope. Within this period, in vitro tumour growth led to the formation of colonies with a diameter of >50 μm. At the time of maximum colony formation, counts were performed with an automatic image analysis system (OMNICOM FAS IV, Biosys GmbH). 24 hours prior to evaluation, vital colnies were stained with a sterile aqueous solution of 2-(4-iodophenyl)-3-(4-nitrophenyl)-5-phenyltetrazolium chloride (1 mg/ml, 100 μl/well).
(§3) The IC50 values of the test compounds were determined by plotting compound concentration versus cell viability.

Another experiment has as its system renal cell lines. Kind of experiment: NCI hollow fibre assay, renal variation. The experiment is classed as in vivo, human. As to conditions: three cell lines; for IP + SC score: combined score, 5 or more referred for xenograft testing; for IP score: intraperitoneal fibres in mice; for IP score / SC score: drug IP QDx4, 2 doses, 2 points per dose giving 50% or greater reduction in viable cell mass; for SC score: subcutaneous fibres in mice. From the text:
(§4) The Biological testing Branch of the Developmental Therapeutics Program of the NCI has adopted a preliminary in vivo screening tool for assessing the potential anticancer activity of compounds identified by the large scale in vitro cell screen. For these assays, human tumour cells are cultivated in polyvinylidene (PVDF) hollow fibres, and a sample of each cell line is implanted into each of two physiologic compartments (intraperitoneal and subcutaneaous) in mice. Each test mouse received a total of 6 fibres (3 intraperitoneally and 3 subcutaneously) representing 3 distinct cancer cell lines. These mice are treated with potential antitumour compounds at each of 2 test doses by the intraperitoneal route using a QD×4 treatment schedule. Vehicle controls consist of 6 mice receiving the compound diluent only. The fibre cultures are collected on the day following the last day of treatment. To assess anticancer effects, the viable cell mass is determined for each of the cell lines using a formazyn dye (MTT) conversion assay. From this, the % T/C can be calculated using the average optical density of compound treated samples divided by the average optical; density of the vehicle controls. In addition, the net increase in cell mass can be determined for each sample, as a sample of fibre cultures are assessed for viable cell mass on the day of implantation into mice. Thus, the cytostatic and cytocidal capacities of the test compound can be assessed.
(§5) Generally, each compound is tested against a minimum of 12 human cancer cell lines. This represents a total of 4 experiments since each experiment contains 3 cell lines. The data are reported as % T/C for each of the 2 compound doses against each of the cell lines with separate values calculated for the intraperitoneal and subcutaneous samples.
(§6) Compounds are selected for further in vivo testing in standard subcutaneous xenograft models on the basis of several hollow fibre assay criteria. These include: (1) a % T/C of 50 or less in 10 of the 48 possible test combinations (12 cell lines×2 sites ×2 compound doses); (2) activity at a distance (intraperitoneal drug/subcutaneous culture) in a minimum of 4 of the 24 possible combinations; and/or (3) a net cell kill of 1 or more of the cell lines in either implant site. To simplify evaluation, a points system has been adopted which allows rapid evaluation of the activity of a given compound. For this, a value of 2 is assigned for each compound dose which results in a 50% or greater reduction in viable cell mass. The intraperitoneal and subcutaneous samples are scored separately so that criteria (1) and (2) can be evaluated. Compounds with a combined IP+SC score of 20, a SC score of 8 or a net cell kill of one or more cell lines are referred for xenograft testing. […] In addition to these criteria, other factors (e.g. unique structure, mechanism of action) may result in referral of a compound for xenograft testing without the compound meeting these criteria.
(§7) Certain compounds of the invention were tested in variations of these assays, to assess their activity against renal and melanoma cell lines. In the melanoma assay, only 6 cell lines are used, and therefore compounds with a combined IP+SC score of 10 or a SC score of 4 are referred for xenograft testing. In the renal assay, only three cell lines are used and therefore compounds with a combined IP+SC score of 5 or a SC score of 2 are referred for xenograft testing.
In general terms: In xenograft studies the graft and the host belong to different species.

For another experiment, the system named is melanoma cell lines. Nature of the experiment: NCI hollow fibre assay, melanoma variation. The experiment is classed as in vivo, human. As to conditions: 6 cell lines; for IP + SC score: combined score, 10 or more referred for xenograft testing; for IP score: intraperitoneal fibres in mice; for IP score / SC score: drug IP QDx4, 2 doses, 2 points per dose giving 50% or greater reduction in viable cell mass; for SC score: subcutaneous fibres in mice.
Description: as §4, §5, §6, §7

A further experiment relates to Renal RXF 944L. Nature of the experiment: In vitro clonogenic assay (two-layer agar), renal. The experiment is classed as cell-based, human. As to conditions: continuous exposure, 8-20 days, colony count. On the procedure: as §1, §2, §3
The next experiment has as its system Lung 629L. Nature of the experiment: In vitro clonogenic assay (two-layer agar), lung. The experiment is classed as cell-based, human. To be noted: continuous exposure, 8-20 days, colony count. On the procedure:
as §1, §2, §3

For another experiment, the system named is Melanoma MEXF 462NL. Kind of experiment: In vitro clonogenic assay (two-layer agar), melanoma. To be noted: continuous exposure, 8-20 days, colony count. The experiment is classed as cell-based, human. On the procedure: as §1, §2, §3
The test system of experiment [1] is approximately 60 human tumour cell lines. Nature of the experiment: NCI in vitro cytotoxicity screen (SRB assay). The experiment is classed as cell-based. As to conditions: GI50 in Moles, 48 hour continuous exposure. On the procedure: The National Cancer Institute (NCI), Bethesda, Md. USA has available an in vitro cytotoxicity screen which consists of approximately 60 human tumour cell lines against which compounds are tested at a minimum of five concentrations each differing 10-fold. A 48 hour continuous exposure protocol is used, where cell viability or growth is estimated with an SRB protein assay.
The test compounds were evaluated against approximately 60 human tumour cell lines. The NCI screening procedures were described in detail by Monks and co-workers (Monks, A et al., Journal of the National Cancer Institute, 1991, 83, 757). Briefly, cell suspensions were diluted according to the particular cell type and the expected target cell density (5000-40,000 cells per well based on cell growth characteristics), and added by pipette (100 μL) into 96-well microtitre plates. The cells were allowed a preincubation period of 24 hours at 37° C. for stabilisation. Dilutions at twice the intended test concentration were added at time zero in 100 μL aliquots to the wells. The test compounds were evaluated at five 10-fold dilutions (10^−4, 10^−5, 10^−6, 10^−7 and 10^−[…]). The test compounds were incubated for 48 hours in 5% CO2 atmosphere and 100% humidity. The cells were then assayed using the sulphorhodamine B assay. […]

Some results are limits rather than exact numbers.

On to `COc1cc2c(cc1OC)C(=O)N1C=C(c3ccc4ccccc4c3)C[C@H]1C=N2` [Compound 11, (11aS)-1,11a-dihydro-7,8-dimethoxy-2-(2-napthyl)-5H-pyrrolo[2,1-c][1,4]benzodiazepin-5-one], for which, in the experiment with Breast MACL MCF7 (Homo sapiens), inhibition was half-maximal at 0.22 nM (IC50).

As for `COc1cc2c(cc1OC)C(=O)N1C=C(c3ccc(C(C)(C)C)cc3)C[C@H]1C=N2` [Compound 13, (11aS)-1,11a-dihydro-7,8-dimethoxy-2-(4-tert-butylbenzene)-5H-pyrrolo[2,1-c][1,4]benzodiazepin-5-one], in the experiment with renal cell lines, the “IP + SC score” value was 6, the IP score is recorded as 4 and the SC score stood at 2. Also, in the experiment on Breast MACL MCF7, the IC50 (usually the concentration that gives 50% inhibition) worked out at 0.26 nM. Also, in the experiment on melanoma cell lines, the “IP + SC score” value was 6, the IP score is given as 2 and the SC score turned out to be 4.

On to `COc1cc2c(cc1OC)C(=O)N1C=C(c3ccc(Cl)cc3)C[C@H]1C=N2` [Compound 15, (11aS)-1,11a-dihydro-7,8-dimethoxy-2-(4-chlorobenzene)-5H-pyrrolo[2,1-c][1,4]benzodiazepin-5-one], for which the IC50 in the experiment with Breast MACL MCF7 (Homo sapiens) worked out at 0.15 nM.

For the molecule `COc1cc2c(cc1OC)C(=O)N1C=C(c3ccc(F)cc3)C[C@H]1C=N2` [Compound 17, (11aS)-1,11a-dihydro-7,8-dimethoxy-2-(4-fluorobenzene)-5H-pyrrolo[2,1-c][1,4]benzodiazepin-5-one], 0.17 nM corresponded to half-maximal inhibition in the experiment on Renal RXF 944L (Homo sapiens) (IC50).

On to `COc1cc2c(cc1OC)C(=O)N1C=C(c3ccccc3C)C[C@H]1C=N2` [Compound 19, (11aS)-1,11a-dihydro-7,8-dimethoxy-2-(2-methylbenzene)-5H-pyrrolo[2,1-c][1,4]benzodiazepin-5-one], for which, in the experiment with Breast MACL MCF7 (Homo sapiens), the IC50 amounted to 0.35 nM. Besides, in the experiment on melanoma cell lines, the “IP + SC score” value is recorded as 8, the IP score is 4 and the SC score was found to be 4. In addition, the IC50 in the experiment with Lung 629L (Homo sapiens) was 1 nM.

`CCc1ccc(C2=CN3C(=O)c4cc(OC)c(OC)cc4N=C[C@@H]3C2)cc1` [Compound 21, (11aS)-1,11a-dihydro-7,8-dimethoxy-2-(4-ethylbenzene)-5H-pyrrolo[2,1-c][1,4]benzodiazepin-5-one]: the IC50 is less than 0.1 nM in the experiment on Renal RXF 944L, less than 0.1 nM in the experiment on Breast MACL MCF7, 0.36 nM with Lung 629L and less than 0.1 nM with Melanoma MEXF 462NL. Also, in the experiment with melanoma cell lines, the “IP + SC score” value came to 10. Besides, in the experiment with melanoma cell lines, the IP score was determined as 10. For the same molecule, in the experiment on melanoma cell lines, the SC score is recorded as 0.

Turning to `COc1cc2c(cc1OC)C(=O)N1C=C(c3cccs3)C[C@H]1C=N2` [Compound 23, (11aS)-1,11a-dihydro-7,8-dimethoxy-2-(2-thiophene)-5H-pyrrolo[2,1-c][1,4]benzodiazepin-5-one], the “MG_MID (average log GI50 across all cell lines tested)” value in experiment [1] is −6.34. Besides, the IC50 in the experiment with Breast MACL MCF7 (Homo sapiens) stood at 0.35 nM.

For `COc1cc2c(cc1OC)C(=O)N1C=C(c3ccco3)C[C@H]1C=N2` [Compound 25, (11aS)-1,11a-dihydro-7,8-dimethoxy-2-(2-furan)-5H-pyrrolo[2,1-c][1,4]benzodiazepin-5-one], the “MG_MID (average log GI50 across all cell lines tested)” value in experiment [1] is recorded as −7.18.

Regarding `COc1cc2c(cc1OC)C(=O)N1C=C(c3c(C)cccc3C)C[C@H]1C=N2` [Compound 27, (11aS)-1,11a-dihydro-7,8-dimethoxy-2-(2,6-dimethylbenzene)-5H-pyrrolo[2,1-c][1,4]benzodiazepin-5-one], in the experiment on renal cell lines, the “IP + SC score” value is 8, the IP score came to 4 and the SC score is reported as 4.

For `COc1cc2c(cc1OC)C(=O)N1C=C(c3ccccc3)C[C@H]1C=N2` [Compound C1, reference compound], the IC50 with Renal RXF 944L (Homo sapiens) was determined as 20.5 nM; in the experiment with Breast MACL MCF7 (Homo sapiens), 19.3 nM; in the experiment on Lung 629L (Homo sapiens), 44.5 nM; in the experiment on Melanoma MEXF 462NL (Homo sapiens), 40 nM. Also, the entries for the “IP + SC score” value in the experiment on renal cell lines and with melanoma cell lines were 0 and 4, respectively. The results for the IP score in the experiment on renal cell lines and in the experiment on melanoma cell lines were 0 and 4, respectively. Also, the SC score with renal cell lines and in the experiment with melanoma cell lines was 0 in each case.

On to `COc1ccc(C2=CN3C(=O)c4cc(OC)c(OC)cc4N=C[C@@H]3C2)cc1` [Compound C2], for which the IC50 in the experiment with Renal RXF 944L (Homo sapiens) was 1.5 nM; with Breast MACL MCF7 (Homo sapiens), 1.96 nM; in the experiment with Lung 629L (Homo sapiens), 5 nM; in the experiment on Melanoma MEXF 462NL (Homo sapiens), 2.85 nM.

With `COc1cc2c(cc1OC)C(=O)N1C=C(c3ccc(C)cc3)C[C@H]1C=N2` [Compound C3, reference compound], the IC50 with Renal RXF 944L (Homo sapiens) was 0.89 nM; with Breast MACL MCF7 (Homo sapiens), 1.59 nM; in the experiment with Lung 629L (Homo sapiens), 8 nM; in the experiment with Melanoma MEXF 462NL (Homo sapiens), 2 nM. The “IP + SC score” value in the experiment with renal cell lines and with melanoma cell lines was 2 each time. Further, the IP score in the experiment on renal cell lines turned out to be 2; in the experiment on melanoma cell lines, 0. Further, the SC score in the experiment with renal cell lines came to 0; in the experiment on melanoma cell lines, 2.

The values above are taken from patent US7407951B2, “Pyrrolobenzodiazepines” (Spirogen Limited, priority 2002, dated 2008).
